According to patent publication US20230129866A1 (PureTech LYT 100, Inc., priority 2020, published 2023):
Where two headings read alike, the source gives them in different places. Values belong to the molecule of their own block, whether it stands above or below them.

Columns and labels:
[1] = Single 801 mg dose, double-blinded, cross-over study of LYT-100 vs pirfenidone in healthy volunteers (PK and safety); conditions: for Cmax (ng/mL), Mean / AUC0-t (hr*ng/mL), Mean / tmax (hr), Median / % AUC extrap, Mean / AUC(inf) (hr*ng/mL), Mean / Kel (1/hr), Mean / t1/2 (hr), Mean: fed; for Cmax (ng/mL), Mean: healthy volunteers; for Cmax (ng/mL), Mean / AUC0-t (hr*ng/mL), Mean / tmax (hr), Median: n = 24
[2] = 200 mg SD-559 (pirfenidone) BID, Huang et al.; in ng/mL; cited from earlier work
[3] = Phase 1 multiple ascending dose (MAD) study Part 1, healthy volunteers (PK and safety); conditions: for Accumulation ratios (AUC96-108/AUC0-12) across all dose groups: 100 mg, 250 mg, 500 mg, and 750 mg BID, Cohorts 1-4, FIG. 19; for Average ratio to the parent (M/P) by AUC: range in brackets
[4] = 91-day repeat dose oral toxicity and toxicokinetics study in rats; conditions: for Ratio of exposure (AUC), Group 4 (LYT-100 at 750 mg/kg) analyte / Group 5 (SD-559 at 750 mg/kg) analyte: LYT-100/SD-559, SD-790/SD-788, SD-1051/SD-1050, SD-789 Group 4/SD-789 Group 5; for Cmax in rat relative to human: male rat Day 1 vs human; for Exposure in rats relative to humans after 28 days of daily dosing: male rat Day 28 vs human; for Exposure (AUC) in rat relative to human: male rats 750 mg/kg Day 1 vs human single 801 mg dose; for Dose proportionality of AUC0-24 over 250 to 750 mg/kg / Dose proportionality of Cmax over 250 to 750 mg/kg: rats dosed with SD-560, Groups 2 to 4, general statement
[5] = humans, cited from earlier work
[6] = Phase 1 food effect study Part 2 (Cohort 5), single 500 mg dose fed vs fasted; format: in vivo, human; conditions: LYT-100 @500 mg single dose
Method: The comparison will be based on Day 1, Day 2 and Day 3 PK plasma samples after the first dose of study drug on Day 1 under fast and fed conditions of Part 2.
Subjects will be admitted to the CRU on Day-1 and will fast overnight for at least 10 h.

[7] = Treatment = LYT-100, single 801 mg oral dose
[8] = Treatment = LYT-100, single 801 mg oral dose, n = 24 (LYT-110 n = 23)
[9] = Treatment = Pirfenidone, single 801 mg oral dose
[10] = Treatment = Pirfenidone, single 801 mg oral dose, n = 24 (LYT-111 n = 19)
[11] = after LYT-100 801 mg, metabolite/LYT-100
[12] = after LYT-100 801 mg, metabolite/LYT-100, molecular weight corrected
[13] = after Pirfenidone (LYT-101) 801 mg, metabolite/LYT-101
[14] = after Pirfenidone (LYT-101) 801 mg, metabolite/LYT-101, molecular weight corrected

AUC, % Change Fed vs Fasted [6]: −5%
Cmax, % Change Fed vs Fasted [6]: −1.7%
Tmax, % Change Fed vs Fasted [6]: +33%
SMILES: O=C(O)c1ccc(=O)n(-c2ccccc2)c1 [LYT-105, 5-carboxy-pirfenidone]
Cmax (ng/mL), Mean [1, 7]: 3970 ng/mL
AUC0-t (hr*ng/mL), Mean [1, 7]: 23090 ng·h/mL
tmax (hr), Median [1, 7]: 2.50 h
% AUC extrap, Mean [1, 8]: 1.13%
AUC(inf) (hr*ng/mL), Mean [1, 8]: 23350 ng·h/mL
Kel (1/hr), Mean [1, 8]: 0.262 h⁻¹
t1/2 (hr), Mean [1, 8]: 2.91 h
Cmax (ng/mL), Mean [1, 9]: 5241 ng/mL
AUC0-t (hr*ng/mL), Mean [1, 9]: 26932 ng·h/mL
tmax (hr), Median [1, 9]: 3.00 h
% AUC extrap, Mean [1, 10]: 0.843%
AUC(inf) (hr*ng/mL), Mean [1, 10]: 27159 ng·h/mL
Kel (1/hr), Mean [1, 10]: 0.288 h⁻¹
t1/2 (hr), Mean [1, 10]: 2.55 h
Metabolite/Parent Ratio, AUC0-∞, Median [1, 11]: 32.3%
Metabolite/Parent Ratio, Cmax, Median [1, 11]: 33.5%
Metabolite/Parent Ratio, AUC0-∞, Mean [1, 12]: 43.8%
Metabolite/Parent Ratio, Cmax, Mean [1, 12]: 43.3%
Metabolite/Parent Ratio, AUC0-∞, Mean ([1]; after LYT-100 801 mg, metabolite/LYT-100, molecular weight corrected, listed as 5-carboxy-pirfenidone): 43.8%
Metabolite/Parent Ratio, AUC0-∞, Median [1, 13]: 53.7%
Metabolite/Parent Ratio, Cmax, Median [1, 13]: 57.5%
Metabolite/Parent Ratio, AUC0-∞, Mean [1, 14]: 65.9%
Metabolite/Parent Ratio, Cmax, Mean [1, 14]: 68.1%
Metabolite/Parent Ratio, AUC0-∞, Mean ([1]; after Pirfenidone (LYT-101) 801 mg, metabolite/LYT-101, molecular weight corrected, listed as 5-carboxy-pirfenidone): 65.9%
Reduction of AUC after LYT-100 relative to pirfenidone ([1]; single 801 mg dose each): approximately 15%
Reduction of Cmax after LYT-100 relative to pirfenidone ([1]; single 801 mg dose each): ~25%
observed Cmax [2]: 1476
Accumulation ratios (AUC96-108/AUC0-12) across all dose groups [3]: ~1
Dose dependence of AUC96-108 across all dose Cohorts ([3]; 100 to 1000 mg BID, FIG. 25): linear dose proportionality
Average ratio to the parent (M/P) by AUC ([3]; Cohort 4, 750 mg BID): 0.45 (0.37-0.50)
Average ratio to the parent (M/P) by AUC ([3]; Cohort 6, 1000 mg BID): 0.56 (0.44-0.66)
observed Cmax ([3]; LYT-100 100 mg BID with food): 567 ng/mL
% difference (vs. 200 mg SD-559) Cmax ([3]; LYT-100 100 mg vs Huang et al. data extrapolated assuming dose proportionality, LYT-100 vs SD-559, SD-789 vs SD-789): −23%
observed Cmax ([3]; LYT-100 250 mg BID with food): 1170 ng/mL
% difference (vs. 200 mg SD-559) Cmax ([3]; LYT-100 250 mg vs Huang et al. data extrapolated assuming dose proportionality): −37%
observed Cmax ([3]; LYT-100 500 mg BID with food): 2360 ng/mL
% difference (vs. 200 mg SD-559) Cmax ([3]; LYT-100 500 mg vs Huang et al. data extrapolated assuming dose proportionality): −36%
observed Cmax ([3]; LYT-100 750 mg BID with food): 3370 ng/mL
% difference (vs. 200 mg SD-559) Cmax ([3]; LYT-100 750 mg vs Huang et al. data extrapolated assuming dose proportionality): −39%
observed Cmax ([3]; LYT-100 1000 mg BID with food): 4940 ng/mL
% difference (vs. 200 mg SD-559) Cmax ([3]; LYT-100 1000 mg vs Huang et al. data extrapolated assuming dose proportionality): −33%
Average ratio of metabolite to the parent (mtp) by AUC ([3]; MAD study, all doses): 0.45
Ratio of exposure (AUC), Group 4 (LYT-100 at 750 mg/kg) analyte / Group 5 (SD-559 at 750 mg/kg) analyte ([4]; Day 1, Female rats): 0.49
Ratio of exposure (AUC), Group 4 (LYT-100 at 750 mg/kg) analyte / Group 5 (SD-559 at 750 mg/kg) analyte ([4]; Day 1, Male rats): 0.45
Ratio of exposure (AUC), Group 4 (LYT-100 at 750 mg/kg) analyte / Group 5 (SD-559 at 750 mg/kg) analyte ([4]; Day 28, Female rats): 0.71
Ratio of exposure (AUC), Group 4 (LYT-100 at 750 mg/kg) analyte / Group 5 (SD-559 at 750 mg/kg) analyte ([4]; Day 28, Male rats): 0.57
Cmax in rat relative to human [4]: ~9 fold
Exposure in rats relative to humans after 28 days of daily dosing [4]: ~7 fold
Exposure (AUC) in rat relative to human [4]: about 8 fold
Dose proportionality of AUC0-24 over 250 to 750 mg/kg [4]: dose proportional
Dose proportionality of Cmax over 250 to 750 mg/kg [4]: approximately dose proportional
Lower Cmax and exposure of SD-789 after SD-560 than of SD-789 after SD-559 ([4]; rats, 750 mg/kg each): approximately 50%
Plasma exposure as percent of the exposure to pirfenidone ([5]; Huang 2013): approximately 50%
Share of recovered drug material excreted as this metabolite ([5]; urine, after oral pirfenidone): > 95%

SMILES: O=c1ccc(CO)cn1-c1ccccc1 [SD-788, 5-hydroxymethyl-pirfenidone]
Formation greater in terms of overall systemic exposure (AUC) after administration of LYT-100 ([1]; LYT-100 vs pirfenidone, single 801 mg dose): approximately 50%
Cmax (ng/mL), Mean [1, 9]: 17.1 ng/mL
AUC0-t (hr*ng/mL), Mean [1, 9]: 75.8 ng·h/mL
tmax (hr), Median [1, 9]: 2.50 h
% AUC extrap, Mean [1, 10]: 10.3%
AUC(inf) (hr*ng/mL), Mean [1, 10]: 89.7 ng·h/mL
Kel (1/hr), Mean [1, 10]: 0.367 h⁻¹
t1/2 (hr), Mean [1, 10]: 2.04 h
Metabolite/Parent Ratio, AUC0-∞, Median [1, 13]: 0.2%
Metabolite/Parent Ratio, Cmax, Median [1, 13]: 0.2%
Metabolite/Parent Ratio, AUC0-∞, Mean [1, 14]: 0.2%
Metabolite/Parent Ratio, Cmax, Mean [1, 14]: 0.2%

SMILES: [2H]C([2H])(O)c1ccc(=O)n(-c2ccccc2)c1 [SD-790, d2-5-hydroxymethyl-pirfenidone]
Cmax (ng/mL), Mean [1, 7]: 20.6 ng/mL
AUC0-t (hr*ng/mL), Mean [1, 7]: 111 ng·h/mL
tmax (hr), Median [1, 7]: 2.50 h
% AUC extrap, Mean [1, 8]: 10.1%
AUC(inf) (hr*ng/mL), Mean [1, 8]: 124 ng·h/mL
Kel (1/hr), Mean [1, 8]: 0.294 h⁻¹
t1/2 (hr), Mean [1, 8]: 2.76 h
Metabolite/Parent Ratio, AUC0-∞, Median [1, 11]: 0.2%
Metabolite/Parent Ratio, Cmax, Median [1, 11]: 0.2%
Metabolite/Parent Ratio, AUC0-∞, Mean [1, 12]: 0.2%
Metabolite/Parent Ratio, Cmax, Mean [1, 12]: 0.2%
Accumulation ratios (AUC96-108/AUC0-12) across all dose groups [3]: ~1
Average ratio to the parent (M/P) by AUC ([3]; Cohort 4, 750 mg BID): 0.0025 (0.0020-0.0029)
Average ratio to the parent (M/P) by AUC ([3]; Cohort 6, 1000 mg BID): 0.0028 (0.0018-0.0038)
Ratio of exposure (AUC), Group 4 (LYT-100 at 750 mg/kg) analyte / Group 5 (SD-559 at 750 mg/kg) analyte ([4]; Day 1, Female rats): 2.50
Ratio of exposure (AUC), Group 4 (LYT-100 at 750 mg/kg) analyte / Group 5 (SD-559 at 750 mg/kg) analyte ([4]; Day 1, Male rats): 2.22
Ratio of exposure (AUC), Group 4 (LYT-100 at 750 mg/kg) analyte / Group 5 (SD-559 at 750 mg/kg) analyte ([4]; Day 28, Female rats): 2.59
Ratio of exposure (AUC), Group 4 (LYT-100 at 750 mg/kg) analyte / Group 5 (SD-559 at 750 mg/kg) analyte ([4]; Day 28, Male rats): 2.54
Cmax in rat relative to human [4]: ~1825 fold
Exposure in rats relative to humans after 28 days of daily dosing [4]: ~1600 fold
Exposure (AUC) in rat relative to human [4]: about 1250 fold
Dose proportionality of AUC0-24 over 250 to 750 mg/kg [4]: dose proportional
Dose proportionality of Cmax over 250 to 750 mg/kg [4]: dose proportional
Exposure and Cmax vs the non-deuterated corresponding metabolite (SD-788) from SD-559 ([4]; rats, 750 mg/kg each, all days, both genders): almost twice

SMILES: Cc1ccc(=O)n(-c2ccc(O)cc2)c1 [SD-1050, 4′-hydroxy-pirfenidone]
Metabolite/Parent Ratio, Cmax, Median [1, 13]: 0.0%
Metabolite/Parent Ratio, Cmax, Mean [1, 14]: 0.0%

SMILES: [2H]C([2H])([2H])c1ccc(=O)n(-c2ccc(O)cc2)c1 [SD-1051, d3-4′-hydroxy-pirfenidone]
Quantifiability in human plasma ([1]; after LYT-100): not quantifiable
Metabolite/Parent Ratio, AUC0-∞, Median [1, 11]: 0.1%
Metabolite/Parent Ratio, Cmax, Median [1, 11]: 0.1%
Metabolite/Parent Ratio, AUC0-∞, Mean [1, 12]: 0.1%
Metabolite/Parent Ratio, Cmax, Mean [1, 12]: 0.1%
Accumulation ratios (AUC96-108/AUC0-12) across all dose groups [3]: ~1
Average ratio to the parent (M/P) by AUC ([3]; Cohort 4, 750 mg BID): 0.0017 (0.0012-0.0022)
Average ratio to the parent (M/P) by AUC ([3]; Cohort 6, 1000 mg BID): 0.0037 (0.0030-0.0058)
Ratio of exposure (AUC), Group 4 (LYT-100 at 750 mg/kg) analyte / Group 5 (SD-559 at 750 mg/kg) analyte ([4]; Day 1, Female rats): 21.77
Ratio of exposure (AUC), Group 4 (LYT-100 at 750 mg/kg) analyte / Group 5 (SD-559 at 750 mg/kg) analyte ([4]; Day 1, Male rats): 34.51
Ratio of exposure (AUC), Group 4 (LYT-100 at 750 mg/kg) analyte / Group 5 (SD-559 at 750 mg/kg) analyte ([4]; Day 28, Female rats): 38.04
Dose proportionality of AUC0-24 over 250 to 750 mg/kg [4]: increased dose proportionally on Day 1
Dose proportionality of Cmax over 250 to 750 mg/kg [4]: less than dose proportional
